Measured values from patent publication US7112590B2, “Thrombin inhibitors” (LEK Pharmaceuticals d.d., priority 2000, dated 2006).

melting point	Compound
203 to 206 °C	Cl.Cl.N[C@H](Cc1ccccc1)C(=O)N1CCC[C@H]1C(=O)NC1CCc2n[nH]cc2C1 (some centres unmarked)
212 to 215 °C	Cl.Cl.Nc1ncc2c(n1)CCC(NC(=O)[C@@H]1CCCN1C(=O)[C@@H](N)C(c1ccccc1)c1ccccc1)C2 (some centres unmarked)
201 to 204 °C	Cl.Cl.Nc1ncc2c(n1)CCC(NC(=O)[C@@H]1CCCN1C(=O)[C@H](N)Cc1ccc(Cl)c(Cl)c1)C2 (some centres unmarked)
195 to 198 °C	Cl.Cl.N[C@H](C(=O)N1CCC[C@H]1C(=O)NC1CCc2n[nH]cc2C1)C(c1ccccc1)c1ccccc1 (some centres unmarked)
199 to 202 °C	Cl.Cl.N[C@H](Cc1ccc(Cl)c(Cl)c1)C(=O)N1CCC[C@H]1C(=O)NC1CCc2n[nH]cc2C1 (some centres unmarked)
199 to 202 °C	Cl.Cl.Nc1ncc2c(n1)CCC(NC(=O)[C@@H]1CCCN1C(=O)[C@H](N)C(c1ccccc1)c1ccccc1)C2 (some centres unmarked)
225 to 228 °C	Cl.Cl.Nc1nc2c(s1)CC(NC(=O)[C@@H]1CCCN1C(=O)[C@H](N)Cc1ccccc1)CC2 (some centres unmarked)
166 to 169 °C	Cl.Cl.Nc1nc2c(s1)CC(NC(=O)[C@@H]1CCCN1C(=O)[C@H](N)Cc1ccc(Cl)c(Cl)c1)CC2 (some centres unmarked)
155 to 158 °C	Cl.Cl.Nc1nc2c(s1)CC(NC(=O)[C@@H]1CCCN1C(=O)[C@@H](N)C(c1ccccc1)c1ccccc1)CC2 (some centres unmarked)
190 to 193 °C	Cl.Cl.N[C@@H](C(=O)N1CCC[C@H]1C(=O)NC1CCc2n[nH]cc2C1)C(c1ccccc1)c1ccccc1 (some centres unmarked)
145 to 148 °C	Cl.N[C@H](Cc1ccc(Cl)c(Cl)c1)C(=O)N1CCC[C@H]1C(=O)NCC1CCc2n[nH]cc2C1 (some centres unmarked)
169 to 172 °C	Cl.Cl.Nc1ncc2c(n1)CCC(CNC(=O)[C@@H]1CCCN1C(=O)[C@H](N)Cc1ccc(Cl)c(Cl)c1)C2 (some centres unmarked)
144 to 147 °C	Cl.Cl.O=C(O)CN[C@H](CC1CCCCC1)C(=O)N1CCC[C@H]1C(=O)NCC1CCc2n[nH]cc2C1 (some centres unmarked)
166 to 168 °C	Cl.Cl.Nc1ncc2c(n1)CCC(CNC(=O)[C@@H]1CCCN1C(=O)[C@H](N)C(c1ccccc1)c1ccccc1)C2 (some centres unmarked)
180 to 182 °C	Cl.Cl.Nc1nc2c(s1)CC(NC(=O)[C@@H]1CCCN1C(=O)[C@@H](CC1CCCCC1)NCC(=O)O)CC2 (some centres unmarked)
205 to 208 °C	Cl.Cl.Nc1ncc2c(n1)CCC(NC(=O)[C@@H]1CCCN1C(=O)[C@H](N)Cc1ccccc1)C2 (some centres unmarked)
117 to 120 °C	Nc1ncc2c(n1)CCC(NC(=O)[C@@H]1CCCN1C(=O)[C@@H](Cc1ccccc1)NS(=O)(=O)Cc1ccccc1)C2 (stereo partly drawn) [Example 6, (2S)-N-(2-Amino-5,6,7,8-tetrahydro-6-quinazolinyl)-1-{(2R)-2-[(benzylsulfonyl)amino]-3-phenylpropanoyl}-2-pyrrolidinecarboxamide]
110 to 113 °C	CC(C)(C)OC(=O)N[C@H](Cc1ccccc1)C(=O)N1CCC[C@H]1C(=O)NC1CCc2nc(N)ncc2C1 (some centres unmarked) [Example 7]
114 to 116 °C	O=C(NC1CCc2n[nH]cc2C1)[C@@H]1CCCN1C(=O)[C@@H](Cc1ccccc1)NS(=O)(=O)Cc1ccccc1 (stereo partly drawn) [Example 9, (2S)-1-{(2R)-2-[(Benzylsulfonyl)amino]-3-phenylpropanoyl}-N-(4,5,6,7-tetrahydro-2H-indazol-5-yl)-2-pyrrolidinecarboxamide]

melting point	Compound
108 to 110 °C	CC(C)(C)OC(=O)N[C@H](Cc1ccccc1)C(=O)N1CCC[C@H]1C(=O)NC1CCc2n[nH]cc2C1 (stereo partly drawn) [Example 10, tert-Butyl (1R)-1-benzyl-2-oxo-2-{(2S)-2-[(4,5,6,7-tetrahydro-2H-indazol-5-ylamino)carbonyl]pyrrolidinyl}ethylcarbamate]
118 to 121 °C	Nc1ncc2c(n1)CCC(CNC(=O)[C@@H]1CCCN1C(=O)[C@@H](Cc1ccccc1)NS(=O)(=O)Cc1ccccc1)C2 (stereo partly drawn) [Example 12, (2S)-N-[(2-Amino-5,6,7,8-tetrahydro-6-quinazolinyl)methyl]-1-{(2R)-2-[(benzylsulfonyl)amino]-3-phenylpropanoyl}-2-pyrrolidinecarboxamide]
127 to 130 °C	CC(C)(C)OC(=O)N[C@H](C(=O)N1CCC[C@H]1C(=O)NC1CCc2nc(N)ncc2C1)C(c1ccccc1)c1ccccc1 (stereo partly drawn) [Example 13, tert-Butyl (1S)-2-((2S)-2-{[(2-amino-5,6,7,8-tetrahydro-6-quinazolinyl)amino]carbonyl}pyrrolidinyl)-1-benzhydryl-2-oxoethylcarbamate]
114 to 117 °C	CC(C)(C)OC(=O)N[C@H](Cc1ccc(Cl)c(Cl)c1)C(=O)N1CCC[C@H]1C(=O)NC1CCc2nc(N)ncc2C1 (stereo partly drawn) [Example 14, tert-Butyl (1R)-2-((2S)-2-{[(2-amino-5,6,7,8-tetrahydro-6-quinazolinyl)amino]carbonyl}pyrrolidinyl)-1-(3,4-dichlorobenzyl)-2-oxoethylcarbamate]
127 to 130 °C	CC(C)(C)OC(=O)N[C@H](C(=O)N1CCC[C@H]1C(=O)NC1CCc2n[nH]cc2C1)C(c1ccccc1)c1ccccc1 (stereo partly drawn) [Example 15, tert-Butyl (1S)-1-benzhydryl-2-oxo-2-{(2S)-2-[(4,5,6,7-tetrahydro-2H-indazol-5-ylamino)carbonyl]pyrrolidinyl}ethylcarbamate]
116 to 119 °C	CC(C)(C)OC(=O)N[C@H](Cc1ccc(Cl)c(Cl)c1)C(=O)N1CCC[C@H]1C(=O)NC1CCc2n[nH]cc2C1 (stereo partly drawn) [Example 16, tert-Butyl (1R)-1-(3,4dichlorobenzyl)-2-oxo-2-{(2S)-2-[(4,5,6,7-tetrahydro-2H-indazol-5-ylamino)carbonyl]pyrrolidinyl}ethylcarbamate]
114 to 117 °C	Nc1ncc2c(n1)CCC(NC(=O)[C@@H]1CCCN1C(=O)[C@@H](CC1CCCCC1)NS(=O)(=O)Cc1ccccc1)C2 (stereo partly drawn) [Example 21, (2S)-N-(2-Amino-5,6,7,8-tetrahydro-6-quinazolinyl)-1-{(2R)-2-[(benzylsulfonyl)amino]-3-cyclohexylpropanoyl}-2-pyrrolidinecarboxamide]
106 to 109 °C	O=C(NC1CCc2n[nH]cc2C1)[C@@H]1CCCN1C(=O)[C@@H](CC1CCCCC1)NS(=O)(=O)Cc1ccccc1 (stereo partly drawn) [Example 22, (2S)-1-{(2R)-2-[(Benzylsulfonyl)amino]-3-cyclohexylpropanoyl}-N-(4,5,6,7-tetrahydro-2H-indazol-5-yl)-2-pyrrolidinecarboxamide]
128 to 131 °C	CC(C)(C)OC(=O)N[C@@H](C(=O)N1CCC[C@H]1C(=O)NC1CCc2nc(N)ncc2C1)C(c1ccccc1)c1ccccc1 (stereo partly drawn) [Example 23, tert-Butyl (1R)-2-((2S)-2-{[(2-amino-5,6,7,8-tetrahydro-6-quinazolinyl)amino]carbonyl}pyrrolidinyl)-1-benzhydryl-2-oxoethylcarbamate]
120 to 123 °C	CC(C)(C)OC(=O)N[C@H](Cc1ccccc1)C(=O)N1CCC[C@H]1C(=O)NC1CCc2nc(N)sc2C1 (stereo partly drawn) [Example 25, tert-Butyl (1R)-2-((2S)-2-{[(2-amino-4,5,6,7-tetrahydro-1,3-benzothiazol-6-yl)amino]carbonyl}pyrrolidinyl)-1-benzyl-2oxoethylcarbamate]
126 to 129 °C	Nc1nc2c(s1)CC(NC(=O)[C@@H]1CCCN1C(=O)[C@@H](Cc1ccccc1)NS(=O)(=O)Cc1ccccc1)CC2 (stereo partly drawn) [Example 27, (2S)-N-(2-amino-4,5,6,7-tetrahydro-1,3-benzothiazol-6-yl)-1-{(2R)-2-[(benzylsulfonyl)amino]-3-phenylpropanoyl}-2-pyrrolidinecarboxamide]
127 to 130 °C	Nc1nc2c(s1)CC(NC(=O)[C@@H]1CCCN1C(=O)[C@@H](CC1CCCCC1)NS(=O)(=O)Cc1ccccc1)CC2 (stereo partly drawn) [Example 28, (2S)-N-(2-Amino-4,5,6,7-tetrahydro-1,3-benzothiazol-6-yl)-1-{(2R)-2-[(benzylsulfonyl)amino]-3-cyclohexylpropanoyl}-2-pyrrolidinecarboxamide]
128 to 131 °C	Nc1nc2c(s1)CC(NC(=O)[C@@H]1CCCN1C(=O)[C@@H](Cc1ccccc1)NS(=O)(=O)c1ccc3ccccc3c1)CC2 (stereo partly drawn) [Example 30, (2S)-N-(2-Amino-4,5,6,7-tetrahydro-1,3-benzothiazol-6-yl)-1-{(2R)-2-[(2-naphthylsulfonyl)amino]-3-phenylpropanoyl}-2-pyrrolidinecarboxamide]
119 to 122 °C	Nc1nc2c(s1)CC(NC(=O)CNC(=O)[C@@H](Cc1ccccc1)NS(=O)(=O)Cc1ccccc1)CC2 (stereo partly drawn) [Example 31, (2R)-N-{2-[(2-Amino-4,5,6,7-tetrahydro-1,3-benzothiazol-6-yl)amino]-2-oxoethyl}-2-[(benzylsulfonyl)amino]3-phenylpropanamide]
122 to 125 °C	C[C@H](NC(=O)[C@@H](Cc1ccccc1)NS(=O)(=O)Cc1ccccc1)C(=O)NC1CCc2nc(N)sc2C1 (stereo partly drawn) [Example 32, (2R)-N-{(1S)-2-[(2-Amino-4,5,6,7-tetrahydro-1,3-benzothiazol-6-yl)amino]-1-methyl-2-oxoethyl}-2-[(benzylsulfonyl)amino]-3-phenylpropanamide]
125 to 128 °C	Nc1nc2c(s1)CC(NC(=O)[C@@H]1CCCN1C(=O)CNC(c1ccccc1)(c1ccccc1)c1ccccc1)CC2 (stereo partly drawn) [Example 33, (2S)-N-(2-Amino-4,5,6,7-tetrahydro-1,3-benzothiazol-6-yl)-1-[2-(tritylamino)acetyl]-2-pyrrolidinecarboxamide]
116 to 119 °C	CC(C)(C)OC(=O)N[C@H](Cc1ccc(Cl)c(Cl)c1)C(=O)N1CCC[C@H]1C(=O)NC1CCc2nc(N)sc2C1 (stereo partly drawn) [Example 34, tert-Butyl (1R)-2-((2S)-2-{[(2-amino-4,5,6,7-tetrahydro-1,3-benzothiazol-6-yl)amino]carbonyl}pyrrolidinyl)-1-(3,4-dichlorobenzyl)-2-oxoethylcarbamate]
127 to 130 °C	CC(C)(C)OC(=O)N[C@H](C(=O)N1CCC[C@H]1C(=O)NC1CCc2nc(N)sc2C1)C(c1ccccc1)c1ccccc1 (stereo partly drawn) [Example 35, tert-Butyl (1S)-2-((2S)-2-{[(2-amino-4,5,6,7-tetrahydro-1,3-benzothiazol-6-yl)amino]carbonyl}pyrrolidinyl)-1-benzhydryl-2-oxoethylcarbamate]
130 to 133 °C	Nc1nc2ccc(NC(=O)[C@@H]3CCCN3C(=O)[C@@H](Cc3ccccc3)NS(=O)(=O)Cc3ccccc3)cc2s1 [Example 38, (2S)-N-(2-Amino-1,3-benzothiazol-6-yl)-1-{(2R)-2-[(benzylsulfonyl)amino]-3-phenylpropanoyl}-2-pyrrolidinecarboxamide]
